In US9462805B2, “Herbicide-resistant proteins, encoding genes, and uses thereof” (Beijing Dabeinong Technology Group Co., Ltd., priority 2012, dated 2016):

What was measured:
[1] = tested on: Arabidopsis T1 plants transformed with added 24DT02 nucleotide sequence; test: Herbicide resistance effect test of transgenic Arabidopsis T1 plants (24DT02-a); type: in vivo, Arabidopsis thaliana; conditions: number of T1 plants, genotype 24DT02-a, 560 g ae/ha sprayed; for Moderately resistant: curly rosette leaves 7 days after spraying; for Non-resistant: dead 14 days after spraying; for Highly resistant: growth consistent with blank solvent 7 days after spraying; for Lowly resistant: incapable of bolting 14 days after spraying
Protocol: (§1) On 7 days after planting (DAP) and 11 DAP respectively, the T1 plants (cotyledon stage and 2-4 leaves stage, respectively) were sprayed with 0.2% of Liberty herbicide solution (200 g ai/L glufosinate-ammonium) using DeVilbiss compressed air nozzle at a spraying volume of 10 ml/disc (703 L/ha) so as to provide effective amount of glufosinate-ammonium (280 g ai/ha) for each application. The survival plants (actively growing plants) were verified 4 to 7 days after the last spraying and transferred into the square pot (7 cm×7 cm) made from vermiculite and horses dung (3-5 plants per pot). The transplanted plants were covered with moisturizing mask for 3-4 days and placed in culture room at 22° C. or directly into the greenhouse as described above. Then the mask was removed and the plants were planted in greenhouse (22±5° C., 50±30% RH, 14 hours of lighting: 10 hours of darkness, minimum […] natural light+complement light) at least one day before testing the ability of 24DT02 to provide the resistance to phenoxy auxin herbicide.
(§2) 24DT02 gene was used to transform Arabidopsis for the first time. At first, T1 transformants were selected from the background of un-transformed seeds, using glufosinate-ammonium selection scheme. About 40000 T1 seeds were screened among which 195 strains of T1 generation positive transformants (PAT gene) were identified, i.e. the transformation efficiency was about 0.5%. Herbicide resistance effect tests to 2,4-D dimethyl ammonium salt and agroxone of Arabidopsis T1 plants transformed with 24DT02 nucleotide sequence, substituted 24DT02 nucleotide sequence, truncated 24DT02 nucleotide sequence, added 24DT02 nucleotide sequence, control nucleotide sequence respectively and wild-type Arabidopsis plants were performed after 18 days of planting.
(§3) Arabidopsis T1 plants transformed with 24DT02 nucleotide sequence, substituted 24DT02 nucleotide sequence, truncated 24DT02 nucleotide sequence, added 24DT02 nucleotide sequence and control nucleotide sequence respectively and wild-type Arabidopsis plants were sprayed with 2,4-D dimethyl ammonium salt (560 g ae/ha, 1-fold concentration in field), agroxone (560 g ae/ha, 1-fold concentration in field) and blank solvent (water). Resistance conditions of the plants were counted 7 days and 14 days after spraying. Plants with growth conditions consistent with blank solvent (water) 7 days after spaying were classified as highly resistant plants; Plants with curly rosette leaves 7 days after spaying were classified as moderately resistant plants; Plants incapable of bolting 14 days after spaying were classified as low-resistant plants and the dead plants 14 days after spaying were classified as non-resistant plants. Because each Arabidopsis T1 plant was an independent transformation event, significant differences of individual T1 responses were expected under a given dose.

[2] = tested on: corn plants transfected with 24DT02 truncated nucleotide sequence; test: Herbicide-resistance effect test of transgenic corn plants (truncated 24DT02; strains S6, S7); type: in vivo, maize; conditions: 8960 g ae/ha sprayed, 21 days after spraying; for Abnormal development of prop roots / Normal development of prop roots: number of plants
Protocol: (§4) Herbicide resistance effects tests to 2,4-D dimethyl ammonium salt and agroxone of maize plants containing 24DT02 nucleotide sequence, 24DT02 substituted nucleotide sequence, 24DT02 truncated nucleotide sequence, 24DT02 added nucleotide sequence, control nucleotide sequence respectively and wild type maize plants (stages V3-V4) were performed respectively.
(§5) Maize plants containing 24DT02 nucleotide sequence, 24DT02 substituted nucleotide sequence, 24DT02 truncated nucleotide sequence, 24DT02 added nucleotide sequence, control nucleotide sequence respectively and wild type maize plants were taken and spayed with 2,4-D dimethyl ammonium salt (8960 g ae/ha, 16-folds concentration in field), agroxone (8960 g ae/ha, 16-folds concentration in field) and blank solvent (water) respectively. Prop root development was counted 21 days after spaying. Three strains (S1, S2, and S3) of corn plants transfected with 24DT02 nucleotide sequence, two strains (S4 and S5) of corn plants transfected with 24DT02 substituted nucleotide sequence, two strains (S6 and S7) of corn plants transfected with 24DT02 truncated nucleotide sequence, two strains (S8 and S9) of corn plants transfected with 24DT02 added nucleotide sequence, two strains (S10 and S11) of corn plants transfected with control nucleotide sequence and 1 strain of wild type (CK) corn were selected and 10-15 plants from each stain were tested.

[3] = tested on: Arabidopsis T1 plants transformed with truncated 24DT02 nucleotide sequence; test: Herbicide resistance effect test of transgenic Arabidopsis T1 plants (24DT02-t); type: in vivo, Arabidopsis thaliana; conditions: number of T1 plants, genotype 24DT02-t, 560 g ae/ha sprayed; for Moderately resistant: curly rosette leaves 7 days after spraying; for Non-resistant: dead 14 days after spraying; for Highly resistant: growth consistent with blank solvent 7 days after spraying; for Lowly resistant: incapable of bolting 14 days after spraying
Protocol: as §1, §2, §3

[4] = tested on: Arabidopsis T1 plants transformed with control nucleotide sequence; test: Herbicide resistance effect test of Arabidopsis T1 plants (control sequence); type: in vivo, Arabidopsis thaliana; conditions: number of T1 plants, 560 g ae/ha sprayed; for Highly resistant: genotype Control (control sequence), growth consistent with blank solvent 7 days after spraying; for Moderately resistant / Non-resistant / Lowly resistant: genotype Control; for Moderately resistant: curly rosette leaves 7 days after spraying; for Non-resistant: dead 14 days after spraying; for Lowly resistant: incapable of bolting 14 days after spraying
Protocol: as §1, §2, §3

[5] = tested on: corn plants transfected with 24DT02 substituted nucleotide sequence; test: Herbicide-resistance effect test of transgenic corn plants (substituted 24DT02; strains S4, S5); type: in vivo, maize; conditions: 8960 g ae/ha sprayed, 21 days after spraying; for Abnormal development of prop roots / Normal development of prop roots: number of plants
Protocol: as §4, §5

[6] = tested on: Arabidopsis T1 plants transformed with substituted 24DT02 nucleotide sequence; test: Herbicide resistance effect test of transgenic Arabidopsis T1 plants (24DT02-i); type: in vivo, Arabidopsis thaliana; conditions: number of T1 plants, genotype 24DT02-i, 560 g ae/ha sprayed; for Moderately resistant: curly rosette leaves 7 days after spraying; for Non-resistant: dead 14 days after spraying; for Highly resistant: growth consistent with blank solvent 7 days after spraying; for Lowly resistant: incapable of bolting 14 days after spraying
Protocol: as §1, §2, §3

[7] = tested on: wild type maize plants; test: Herbicide-resistance effect test of wild type (CK) corn; type: in vivo; conditions: 8960 g ae/ha sprayed, 21 days after spraying; for Abnormal development of prop roots / Normal development of prop roots: number of plants
Protocol: as §4, §5

[8] = tested on: corn plants transfected with 24DT02 nucleotide sequence; test: Herbicide-resistance effect test of transgenic corn plants (24DT02; strains S1-S3); type: in vivo, maize; conditions: 21 days after spraying; for Normal development of prop roots / Abnormal development of prop roots: number of plants
Protocol: as §4, §5

[9] = tested on: Arabidopsis T1 plants transformed with 24DT02 nucleotide sequence; test: Herbicide resistance effect test of transgenic Arabidopsis T1 plants (24DT02); type: in vivo, Arabidopsis thaliana; conditions: number of T1 plants, genotype 24DT02; for Highly resistant: 560 g ae/ha (1-fold field concentration) sprayed, growth consistent with blank solvent 7 days after spraying; for Moderately resistant / Non-resistant / Lowly resistant: 560 g ae/ha sprayed; for Moderately resistant: curly rosette leaves 7 days after spraying; for Non-resistant: dead 14 days after spraying; for Lowly resistant: incapable of bolting 14 days after spraying
Protocol: as §1, §2, §3

[10] = corn strain S6 (truncated 24DT02)
[11] = corn strain S7 (truncated 24DT02)
[12] = corn strain S4 (substituted 24DT02)
[13] = corn strain S5 (substituted 24DT02)
[14] = corn strain S1 (24DT02), 8960 g ae/ha sprayed
[15] = corn strain S2 (24DT02), 8960 g ae/ha sprayed
[16] = corn strain S3 (24DT02), 8960 g ae/ha sprayed
[17] = corn strain S1 (24DT02), 8960 g ae/ha (16-fold field concentration) sprayed at V3-V4

CNC.O=C(O)COc1ccc(Cl)cc1Cl [2,4-D dimethyl ammonium salt]
Moderately resistant [1]: 3
Non-resistant [1]: 3
Highly resistant [1]: 10
Lowly resistant [1]: 2
Ratio of the normally developed prop roots [2, 10]: 86.67%
Ratio of the normally developed prop roots [2, 11]: 92.86%
Abnormal development of prop roots [2, 10]: 2
Normal development of prop roots [2, 10]: 13
Abnormal development of prop roots [2, 11]: 1
Normal development of prop roots [2, 11]: 13
Moderately resistant [3]: 5
Non-resistant [3]: 4
Highly resistant [3]: 7
Lowly resistant [3]: 0
Highly resistant [4]: 0
Moderately resistant [4]: 0
Non-resistant [4]: 18
Lowly resistant [4]: 0
Ratio of the normally developed prop roots [5, 12]: 87.50%
Ratio of the normally developed prop roots [5, 13]: 100.00%
Abnormal development of prop roots [5, 12]: 2
Normal development of prop roots [5, 12]: 14
Abnormal development of prop roots [5, 13]: 0
Normal development of prop roots [5, 13]: 15
Moderately resistant [6]: 4
Non-resistant [6]: 4
Highly resistant [6]: 8
Lowly resistant [6]: 1
Ratio of the normally developed prop roots [7]: 0%
Abnormal development of prop roots [7]: 16
Normal development of prop roots [7]: 0
Ratio of the normally developed prop roots [8, 14]: 81.25%
Ratio of the normally developed prop roots [8, 15]: 91.67%
Ratio of the normally developed prop roots [8, 16]: 85.71%
Normal development of prop roots [8, 17]: 13
Abnormal development of prop roots [8, 14]: 3
Abnormal development of prop roots [8, 15]: 1
Normal development of prop roots [8, 15]: 11
Abnormal development of prop roots [8, 16]: 2
Normal development of prop roots [8, 16]: 12
Highly resistant [9]: 9
Moderately resistant [9]: 4
Non-resistant [9]: 5
Lowly resistant [9]: 0

Cc1cc(Cl)ccc1OCC(=O)O [agroxone]
Moderately resistant [1]: 5
Non-resistant [1]: 3
Highly resistant [1]: 8
Lowly resistant [1]: 1
Ratio of the normally developed prop roots [2, 10]: 87.50%
Ratio of the normally developed prop roots [2, 11]: 86.67%
Abnormal development of prop roots [2, 10]: 2
Normal development of prop roots [2, 10]: 14
Abnormal development of prop roots [2, 11]: 2
Normal development of prop roots [2, 11]: 13
Moderately resistant [3]: 4
Non-resistant [3]: 4
Highly resistant [3]: 8
Lowly resistant [3]: 2
Highly resistant [4]: 0
Moderately resistant [4]: 0
Non-resistant [4]: 17
Lowly resistant [4]: 0
Ratio of the normally developed prop roots [5, 12]: 81.25%
Ratio of the normally developed prop roots [5, 13]: 93.33%
Abnormal development of prop roots [5, 12]: 3
Normal development of prop roots [5, 12]: 13
Abnormal development of prop roots [5, 13]: 1
Normal development of prop roots [5, 13]: 14
Moderately resistant [6]: 5
Non-resistant [6]: 6
Highly resistant [6]: 9
Lowly resistant [6]: 1
Ratio of the normally developed prop roots [7]: 0%
Abnormal development of prop roots [7]: 16
Normal development of prop roots [7]: 0
Ratio of the normally developed prop roots [8, 14]: 87.50%
Ratio of the normally developed prop roots [8, 15]: 100.00%
Ratio of the normally developed prop roots [8, 16]: 92.31%
Normal development of prop roots [8, 17]: 14
Abnormal development of prop roots [8, 14]: 2
Abnormal development of prop roots [8, 15]: 0
Normal development of prop roots [8, 15]: 12
Abnormal development of prop roots [8, 16]: 1
Normal development of prop roots [8, 16]: 12
Highly resistant [9]: 8
Moderately resistant [9]: 6
Non-resistant [9]: 4
Lowly resistant [9]: 2
